ChEMBL document CHEMBL1201862, “PubChem BioAssay data set” (2004)
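Method: 48-hour compound exposure of cells in 96-well plates, five concentrations, linear interpolation of endpoints. Abbreviation: GI50, concentration required for 50% inhibition of growth.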 Activity calls are given as the source filed them. No stated cut-off is given here; in the data, active = GI50 up to about 1.1 µM and inactive = higher.

Experiments:
Experiment in all cases: NCI tumour cell line growth inhibition, 48 h
[1] = tested on: A498
[2] = tested on: OVCAR-8
[3] = tested on: NCI-H522
[4] = tested on: NCI-H460
[5] = tested on: NCI-H23
[6] = tested on: 786-0
[7] = tested on: Malme-3M
[8] = tested on: UO-31
[9] = tested on: ACHN
[10] = tested on: HOP-92
[11] = tested on: COLO 205
[12] = tested on: LOX IMVI
[13] = tested on: EKVX
[14] = tested on: KM12
[15] = tested on: OVCAR-4
[16] = tested on: MOLT-4
[17] = tested on: SF-539
[18] = tested on: HCC 2998
[19] = tested on: MDA-MB-435

Measured: GI50

Fc1cccc(Cl)c1C1SCc2nc3ccccc3n21 (centres undefined)
inactive: [1] 83.2 µM | [2] 38.1 µM | [3] 17.3 µM | [4] 33 µM | [5] 24.3 µM | [6] 45.7 µM | [7] 14.8 µM | [8] 27.9 µM | [9] 39.2 µM | [10] 6.62 µM | [11] 22.8 µM | [12] 17.3 µM | [13] 26.4 µM | [14] 24.8 µM | [15] 31.6 µM | [16] 18.8 µM | [17] 22.8 µM | [18] 31.7 µM

COC1OC(CO)C(O)C(OC(=O)c2cc(O)c(O)c(O)c2)C1OC(=O)c1cc(O)c(O)c(O)c1 (centres undefined)
inactive: [2] > 100 µM | [3] 30.5 µM | [4] 69.5 µM | [19] 33.4 µM | [5] > 100 µM | [6] > 100 µM | [7] > 100 µM | [8] > 100 µM | [9] 58.2 µM | [11] 59.8 µM | [12] 23.3 µM | [13] > 100 µM | [14] > 100 µM | [15] 23.1 µM | [16] 79.4 µM | [17] 83.6 µM

CCOP(=O)(OCC)C(c1ccc(F)cc1)N(C(=O)NC(F)(F)F)c1ccc(F)cc1 (centres undefined)
inactive: [2] > 100 µM | [3] > 100 µM | [4] > 100 µM | [19] > 100 µM | [5] > 100 µM | [6] > 100 µM | [7] > 100 µM | [8] > 100 µM | [9] > 100 µM | [11] > 100 µM | [12] > 100 µM | [13] > 100 µM | [14] > 100 µM | [16] > 100 µM | [17] > 100 µM | [18] > 100 µM

c1ccc(C(=NCCC2CNc3ccccc32)c2ccccc2)cc1 (centres undefined)
inactive: [1] > 100 µM | [2] > 100 µM | [3] > 100 µM | [4] > 100 µM | [19] > 100 µM | [5] > 100 µM | [6] > 100 µM | [7] > 100 µM | [8] > 100 µM | [9] > 100 µM | [10] > 100 µM | [11] > 100 µM | [13] > 100 µM | [14] > 100 µM | [15] > 100 µM | [16] > 100 µM | [18] > 100 µM

COc1cc(OC)c2c(O)cc(CC(C)O)cc2c1 (centres undefined)
inactive: [1] > 100 µM | [2] > 100 µM | [3] > 100 µM | [4] > 100 µM | [5] > 100 µM | [6] > 100 µM | [7] > 100 µM | [8] > 100 µM | [9] > 100 µM | [10] > 100 µM | [11] > 100 µM | [12] > 100 µM | [13] > 100 µM | [14] > 100 µM | [15] > 100 µM | [16] > 100 µM | [17] > 100 µM | [18] > 100 µM

NC(CCCNc1ccc(O)cc1)C(=O)O (centres undefined)
inactive: [1] 41.3 µM | [2] 33.7 µM | [3] 61.4 µM | [4] > 59.6 µM | [5] 97.9 µM | [6] 17.2 µM | [7] > 56.1 µM | [8] > 60 µM | [9] 26 µM | [10] 26.5 µM | [11] > 54.2 µM | [12] 18.5 µM | [13] 38.8 µM | [14] 49.2 µM | [15] 17.6 µM | [16] 25.4 µM | [17] 35.2 µM | [18] 40.6 µM

Cn1c(=O)oc2cc(C(=S)N3CCCCC3)ccc21
inactive: [1] > 100 µM | [2] > 100 µM | [4] > 100 µM | [19] > 100 µM | [5] > 100 µM | [6] > 100 µM | [7] > 100 µM | [9] > 100 µM | [11] > 100 µM | [12] > 100 µM | [13] > 100 µM | [14] > 100 µM | [16] > 100 µM | [17] > 100 µM

N=C(NC(=N)Nc1ccc(S(=O)(=O)Nc2cnc3ccccc3n2)cc1)Nc1ccc(Br)cc1
inactive: [1] > 100 µM | [2] > 100 µM | [3] > 100 µM | [4] > 100 µM | [5] > 100 µM | [6] > 100 µM | [7] > 100 µM | [8] > 100 µM | [9] > 100 µM | [10] > 100 µM | [11] > 100 µM | [12] > 100 µM | [13] > 100 µM | [14] > 100 µM | [15] > 100 µM | [16] > 100 µM | [17] > 100 µM | [18] > 100 µM

COc1ccc(C(c2ccccc2)(c2ccc(OC)cc2)N2C(=O)NC3C(CCCCC(=O)NCCCCCCOP(OCCC#N)N(C(C)C)C(C)C)SCC32)cc1 (centres undefined)
inactive: [1] 17.2 µM | [2] 29.2 µM | [3] 12.7 µM | [4] 16.8 µM | [5] 17 µM | [6] 18.1 µM | [7] 17.8 µM | [8] 14.3 µM | [9] 16.3 µM | [10] 19.5 µM | [11] 21.6 µM | [12] 11.8 µM | [13] 21.5 µM | [14] 16.2 µM | [15] 17.9 µM | [16] 7.57 µM | [17] 14.5 µM | [18] 16.6 µM

Cn1cc2ccccc2c1-c1nc(F)nc(Nc2ccc(N)cc2)n1
inactive: [1] 6.93 µM | [2] 21 µM | [3] 14.4 µM | [4] 13.5 µM | [5] 15.8 µM | [6] 22.3 µM | [7] 14.4 µM | [8] 17.3 µM | [9] 23.3 µM | [10] 15.1 µM | [11] > 10 µM | [12] 12.4 µM | [13] 23.3 µM | [14] 14 µM | [15] 23.1 µM | [16] 17.5 µM | [17] 15.8 µM | [18] 18 µM

NC1=NC(c2ccccc2)CC(c2cc(Cl)cc(Br)c2O)=N1 (centres undefined)
inactive: [1] 16.4 µM | [2] 17.1 µM | [3] 3.79 µM | [4] 12.4 µM | [5] 10.8 µM | [6] 16.9 µM | [7] 4.55 µM | [8] 16.4 µM | [9] 16.9 µM | [10] 18 µM | [11] 13 µM | [12] 12.7 µM | [13] 10.1 µM | [14] 11 µM | [15] 15.4 µM | [16] 3.1 µM | [17] 12.2 µM | [18] 13.6 µM
